# Where a name gives a salt, the structure may show the parent alone.
# Tests used:
# [1] = tested on: PDH; details: cited from earlier work
# [2] = cited from earlier work
Compound,melting point [°C],also measured
C[C@@](O)(C(=O)N1CCC(C(=O)c2ccc(F)cc2)CC1)C(F)(F)F,78 to 79,
C[C@@H]1CN(C(=O)[C@@](C)(O)C(F)(F)F)[C@@H](C)CN1S(=O)(=O)c1ccc(C#N)cc1,186 to 187,
C[C@@H]1CN(C(=O)[C@@](C)(O)C(F)(F)F)[C@@H](C)CN1S(=O)(=O)c1ccc(F)cc1,174 to 175,
C[C@@H]1CN(C(=O)[C@@](C)(O)C(F)(F)F)[C@@H](C)CN1C(=O)c1ccc(F)cc1,177 to 178,
C[C@@](O)(C(=O)N1CCC(N)CC1)C(F)(F)F (as salt: hydrochloride),245 to 246,
"O=C(O)C(Cl)Cl [DCA, dichloroacetic acid]",,"activity of PDH ([1]; after acute administration in animals): increases the activity of PDH; proportion of PDH in its active form ([1]; single administration, 150 mg/kg, intraperitoneally): increased the proportion of PDH in its active form; plasma glucose ([2]; after repeated administration): significant decrease in plasma glucose; glycaemia ([2]; in vivo): reducing glycaemia"

# Now from value to compound, other results behind:
melting point [°C],Compound,also measured
142 to 144,CCS(=O)(=O)N1C[C@H](C)N(C(=O)[C@@](C)(O)C(F)(F)F)C[C@H]1C,
116 to 117,C[C@@H]1CN(C(=O)[C@@](C)(O)C(F)(F)F)[C@@H](C)CN1S(=O)(=O)c1cccs1,
194 to 196,C[C@@H]1CN(C(=O)[C@@](C)(O)C(F)(F)F)[C@@H](C)CN1S(=O)(=O)c1ccc(C(=O)O)cc1,
86 to 87,C[C@@H]1CN(C(=O)[C@@](C)(O)C(F)(F)F)[C@@H](C)CN1S(=O)(=O)c1ccc(C(=O)N(C)C)cc1,

# Source: patent US6878712B1, “Amides as inhibitors for pyruvate dehydrogenase” (AstraZeneca AB, priority 1999, dated 2005)
